Experimental data taken from patent US20020035061A1, “COMPOSITIONS AND METHODS FOR TREATING INFECTIONS USING CATIONIC PEPTIDES ALONE OR IN COMBINATION WITH ANTIBIOTICS” (priority 1996, published 2002).

Tests used:
Format in all cases: cell-based
[1] = system: various bacterial strains; test: Broth dilution assay (MIC)
Method: Typically 100 μl of calcium and magnesium supplemented Mueller Hinton broth is dispensed into each well of a 96-well microtitre plate and 100 μl volumes of two-fold serial dilutions of the peptide are prepared across the plate. One row of wells receives no peptide and is used as a growth control. Each well is inoculated with approximately 5×10^5 CFU of bacteria and the plate is incubated at 35-37° C. for 16-20 hours.
For example, MIC values in μg/ml are established by broth dilution assay (Table 13) or by agarose dilution assay (Table 14) for a series of cationic peptides against various bacterial strains.

P. vulgaris = test: Agarose dilution assay (MIC)
S. aureus = test: microbe, parasite or virus in culture
tolerant organisms = test: Overcoming tolerance: MBC and MIC by agarose dilution, antibiotic alone and with peptide; details: combination of Vancomycin and peptide, organisms of Table 18

ILKKFPFFPFRRK [MBI 11A1CN]
MIC ([1]; A. calcoaceticus 8191): >256 µg/mL | MIC ([1]; E. cloacae 13047): >256 µg/mL | MIC ([1]; E. coli 25922): 512 µg/mL | MIC ([1]; E. coli DH1): 128 µg/mL | MIC ([1]; E. coli ECO003): >256 µg/mL | MIC ([1]; E. coli KL4): 256 µg/mL | MIC ([1]; E. faecalis 29212): >256 µg/mL | MIC ([1]; K. pneumoniae 13883): >256 µg/mL | MIC ([1]; K. pneumoniae B44): >256 µg/mL | MIC ([1]; P. aeruginosa 27853): >256 µg/mL | MIC ([1]; P. aeruginosa 8509041): >256 µg/mL | MIC ([1]; P. aeruginosa 9308077): >256 µg/mL | MIC ([1]; P. aeruginosa 9503024): >256 µg/mL | MIC ([1]; P. aeruginosa H650): >256 µg/mL | MIC ([1]; P. aeruginosa H652): >256 µg/mL | MIC ([1]; S. aureus 25923): 512 µg/mL | MIC ([1]; S. aureus 27217): >256 µg/mL | MIC ([1]; S. aureus 29213): 512 µg/mL | MIC ([1]; S. aureus 33593): >256 µg/mL | MIC ([1]; S. aureus 8402093): >256 µg/mL | MIC ([1]; S. aureus 8809014): >256 µg/mL | MIC ([1]; S. aureus 8809025): >256 µg/mL | MIC ([1]; S. epidermidis 14990): 512 µg/mL | MIC ([1]; S. maltophilia 13637): 256 µg/mL | MIC ([1]; S. maltophilia H361): 256 µg/mL | MIC ([1]; S. marcescens 13880): >256 µg/mL | MIC ([1]; S. marcescens B21): >256 µg/mL | MIC (P. vulgaris; P. vulgaris SBPV1): >128 µg/mL | Peptide MIC values (P. vulgaris; agarose dilution, P. vulgaris ATCC 13315): >128 µg/mL

KKWWRRALQGLKTAGPAIQSVLNK [MBI 21A2]
Ciprofloxacin MIC + Peptide (S. aureus; S. aureus SA25): 1 µg/mL | Peptide MIC + Ciprofloxacin (S. aureus; S. aureus SA25): 1 µg/mL | Peptide MIC Alone (S. aureus; S. aureus SA25, Ciprofloxacin section): 16 µg/mL | acquired resistance of S. aureus to piperacillin and ciprofloxacin (S. aureus; antibiotic agents combined with peptide): overcome | FIC (S. aureus; peptide + Ciprofloxacin, S. aureus SA25): 0.56

KWKSFIKKLTSAAKKVVTTAKPLISS [MBI 26]
tolerance (MBC:MIC) to Vancomycin (tolerant organisms): overcomes the tolerance
